Data as given in patent EP3829579B1, “1,3,8-TRIAZASPIRO COMPOUNDS AND THEIR USE AS MEDICAMENTS FOR THE TREATMENT OF REPERFUSION INJURY” (Maria Cecilia Hospital S.p.A., priority 2018, dated 2020).

Assays:
[1] = tested on: release of cytochrome C (Cyt.C) from the mitochondria; assay: detection of cytochrome c in the mitochondrial fraction under Ca2+-dependent stress; assay type: cell-based; details: Ca2+-dependent stress conditions
live cells = assay: MTT cell viability assay; assay type: cell-based; details: micromolar concentrations (1, 5, 10 µM); for reduction of MTT compared to the control: 24h and 48h; for effect on cell viability (MTT): after 72h
Excerpt: (§1) The data were obtained by recording the absorbance changes at 540 nm at the tenth minute of measurement, and subsequently converted to a percentage. Black bar: untreated and unstimulated mitochondria; black control bar: untreated and Ca2+ stimulated mitochondria; dark grey bar: pre-treatment with CsA and stimulation with Ca2+; light bar: pre-treatment with RR and stimulation with Ca2+; first white bar from the top: treatment with compound 1 and stimulation with Ca2+; white bars: pre-treatment with the compounds of the invention and stimulation with Ca2+. […] The subcellular localization of compound 1 was studied by HPLC-HRMS analysis of samples from different cellular compartments, before and after treatment with the compound. […] The grey region of the HPLC spectrum corresponds to a single mass peak at [M+1]+ m/z of 386.1534 (lower panel, [M+H]+ calculated for compound 1 = 386.1533). […] The grey band of the HPLC spectrum corresponds to a mixture of mass peaks detected through the HRMS analysis (lower panel). C: HPLC-HRMS profile of the mitochondrial fraction isolated from cells pre-treated with compound 1 which clearly indicates the presence of the compound with an HPLC band at a retention time of 8.2 min (upper panel). The grey area of the signal corresponds to a mixture of mass peaks (lower panel) among which [M+1]+ m/z of 386.1534, which identifies the undetectable compound 1 in the corresponding untreated fraction (panel B). […] A: Content of mitochondrial ATP in living cells under basal conditions, evaluated based on the luciferase-luciferin protocol. B: Mitochondrial ATP production following stimulation by a Ca2+ dependent agonist. "Histamine" indicates stimulus with histamine. C: MTT cell viability assay after 24h, 48h and 72h of treatment of live cells with compounds of Formula (I) at different concentrations. […] B: Coronary artery perfusion pressure (CPP) recorded on rat heart in conditions of stabilization, ischemia and reperfusion. C: Pressure developed by the left ventricle (LVPdp) recorded under the same conditions as B. D: End-diastolic pressure recorded in the same conditions as B and C. […]
(§2) Compounds 5c, 6g and 10 resulted to be very potent in inhibiting mPTP in the in vitro tests. In order to identify any side effects in the use of these compounds in living cells that could exclude their future development in therapy, and given the crucial role of the C subunit of the ATP synthase in energy production, two important parameters were evaluated, such as cell viability and mitochondrial ATP content, in basal conditions and following Ca^2+-dependent stimulus (Figure 5A-C).

mPTP [2] = assay: mitochondrial swelling assay (absorbance at 540 nm, Ca2+ stimulation); assay type: biochemical; details: mitochondria isolated from mouse liver, monitored for 10 minutes
Excerpt: The data were obtained by recording the absorbance changes at 540 nm at the tenth minute of measurement, and subsequently converted to a percentage. Black bar: untreated and unstimulated mitochondria; black control bar: untreated and Ca2+ stimulated mitochondria; dark grey bar: pre-treatment with CsA and stimulation with Ca2+; light bar: pre-treatment with RR and stimulation with Ca2+; first white bar from the top: treatment with compound 1 and stimulation with Ca2+; white bars: pre-treatment with the compounds of the invention and stimulation with Ca2+. […] The subcellular localization of compound 1 was studied by HPLC-HRMS analysis of samples from different cellular compartments, before and after treatment with the compound. […] The grey region of the HPLC spectrum corresponds to a single mass peak at [M+1]+ m/z of 386.1534 (lower panel, [M+H]+ calculated for compound 1 = 386.1533). […] The grey band of the HPLC spectrum corresponds to a mixture of mass peaks detected through the HRMS analysis (lower panel). C: HPLC-HRMS profile of the mitochondrial fraction isolated from cells pre-treated with compound 1 which clearly indicates the presence of the compound with an HPLC band at a retention time of 8.2 min (upper panel). The grey area of the signal corresponds to a mixture of mass peaks (lower panel) among which [M+1]+ m/z of 386.1534, which identifies the undetectable compound 1 in the corresponding untreated fraction (panel B). […] A: Content of mitochondrial ATP in living cells under basal conditions, evaluated based on the luciferase-luciferin protocol. B: Mitochondrial ATP production following stimulation by a Ca2+ dependent agonist. "Histamine" indicates stimulus with histamine. C: MTT cell viability assay after 24h, 48h and 72h of treatment of live cells with compounds of Formula (I) at different concentrations. In particular, black bar: cells treated with vehicle; dotted bars: compound at the concentration of 1 µM; bars with small black and white squares: compound at a concentration of 5 µM; bars with large black and white squares: compound at a concentration of 10 µM. A standardization was carried out with respect to the vehicle. […] A: Diagram depicting an experiment on an isolated rat heart by the Langendorff system. B: Coronary artery perfusion pressure (CPP) recorded on rat heart in conditions of stabilization, ischemia and reperfusion. C: Pressure developed by the left ventricle (LVPdp) recorded under the same conditions as B. D: End-diastolic pressure recorded in the same conditions as B and C. […]
Mitochondria isolated from mouse liver were checked for purity (Figure 3A) and functionality thereof, and then stimulated with Ca^2+; the decrease in absorbance at 540 nm, indicative of mitochondrial swelling, was monitored for 10 minutes.

rat isolated heart = assay: isolated rat heart ischemia-reperfusion (Langendorff system), with TUNEL assay; assay type: in vivo; details: ex vivo
Excerpt: as §1
Considering the potential of the inhibitors claimed herein in relation to: i) ability to desensitize the opening of mPTP; ii) ability to protect against cell death by inhibiting the release of Cyt.C; iii) ability to preserve cell viability, and iv) mitochondrial ATP content, the effects of compound 10 were studied in an animal model of cardiac ischemia-reperfusion. […] At the end of the procedure, the hearts were also analyzed for cell death by terminal deoxynucleotidyl transferase dUTP nick-end labelling (TUNEL) assay.

ATP synthesis = assay: luciferin-luciferase assay of mitochondrial ATP; assay type: cell-based; details: living cells, basal conditions and following Ca2+-dependent stimulus
Excerpt: The data were obtained by recording the absorbance changes at 540 nm at the tenth minute of measurement, and subsequently converted to a percentage. Black bar: untreated and unstimulated mitochondria; black control bar: untreated and Ca2+ stimulated mitochondria; dark grey bar: pre-treatment with CsA and stimulation with Ca2+; light bar: pre-treatment with RR and stimulation with Ca2+; first white bar from the top: treatment with compound 1 and stimulation with Ca2+; white bars: pre-treatment with the compounds of the invention and stimulation with Ca2+. […] The subcellular localization of compound 1 was studied by HPLC-HRMS analysis of samples from different cellular compartments, before and after treatment with the compound. […] The grey region of the HPLC spectrum corresponds to a single mass peak at [M+1]+ m/z of 386.1534 (lower panel, [M+H]+ calculated for compound 1 = 386.1533). […] The grey band of the HPLC spectrum corresponds to a mixture of mass peaks detected through the HRMS analysis (lower panel). C: HPLC-HRMS profile of the mitochondrial fraction isolated from cells pre-treated with compound 1 which clearly indicates the presence of the compound with an HPLC band at a retention time of 8.2 min (upper panel). The grey area of the signal corresponds to a mixture of mass peaks (lower panel) among which [M+1]+ m/z of 386.1534, which identifies the undetectable compound 1 in the corresponding untreated fraction (panel B). […] A: Content of mitochondrial ATP in living cells under basal conditions, evaluated based on the luciferase-luciferin protocol. B: Mitochondrial ATP production following stimulation by a Ca2+ dependent agonist. "Histamine" indicates stimulus with histamine. C: MTT cell viability assay after 24h, 48h and 72h of treatment of live cells with compounds of Formula (I) at different concentrations. In particular, black bar: cells treated with vehicle; dotted bars: compound at the concentration of 1 µM; bars with small black and white squares: compound at a concentration of 5 µM; bars with large black and white squares: compound at a concentration of 10 µM. A standardization was carried out with respect to the vehicle. […] A: Diagram depicting an experiment on an isolated rat heart by the Langendorff system. B: Coronary artery perfusion pressure (CPP) recorded on rat heart in conditions of stabilization, ischemia and reperfusion. C: Pressure developed by the left ventricle (LVPdp) recorded under the same conditions as B. D: End-diastolic pressure recorded in the same conditions as B and C. E: TUNEL apoptotic assay for the evaluation of the cardioprotective effect in cardiomyocytes of the heart.**:p value<0.01; ****:p value<0.0001.
as §2

mPTP [3] = assay: cobalt-calcein assay of Ca2+-induced mPTP opening in HeLa cells (ionomycin stimulation); assay type: cell-based; details: pre-treatment 1 µM, assessed by the kinetics slope
[4] = subcellular fractionation with HPLC-HRMS detection (subcellular localization); assay type: cell-based; details: cells pre-treated with compound, mitochondria, cytosol and endoplasmic reticulum fractions
Excerpt: The data were obtained by recording the absorbance changes at 540 nm at the tenth minute of measurement, and subsequently converted to a percentage. Black bar: untreated and unstimulated mitochondria; black control bar: untreated and Ca2+ stimulated mitochondria; dark grey bar: pre-treatment with CsA and stimulation with Ca2+; light bar: pre-treatment with RR and stimulation with Ca2+; first white bar from the top: treatment with compound 1 and stimulation with Ca2+; white bars: pre-treatment with the compounds of the invention and stimulation with Ca2+. […] The grey region of the HPLC spectrum corresponds to a single mass peak at [M+1]+ m/z of 386.1534 (lower panel, [M+H]+ calculated for compound 1 = 386.1533). […] The grey band of the HPLC spectrum corresponds to a mixture of mass peaks detected through the HRMS analysis (lower panel). […] A: Content of mitochondrial ATP in living cells under basal conditions, evaluated based on the luciferase-luciferin protocol. […] B: Coronary artery perfusion pressure (CPP) recorded on rat heart in conditions of stabilization, ischemia and reperfusion. C: Pressure developed by the left ventricle (LVPdp) recorded under the same conditions as B. D: End-diastolic pressure recorded in the same conditions as B and C. […]

[5] = 10 µM constant-volume perfusion during the first 10 minutes of reperfusion, 30 minutes ischemia, 1 hour reperfusion

In the case of `O=C1NCN(c2ccccc2)C12CCN(S(=O)(=O)c1ccc(Cl)s1)CC2` [compound 10, 8-((5-chlorotiophen-2-yl)sulfonyl)-1-phenyl-1,3,8-triazaspiro[4.5]decan-4-one], the “release of Cyt.C from the mitochondria” value [1] is reported as “prevent the release of Cyt.C”, the “reduction of MTT compared to the control” value (live cells) is reported as “did not induce a significant reduction” and the “effect on cell viability (MTT)” value (live cells) is reported as “some negative effect”. For the same compound, the “inhibition of Ca2+-induced mPTP opening (mitochondrial swelling, decrease in absorbance at 540 nm)” value (mPTP [2]) was “significantly more performing than compound 1”, the “coronary perfusion pressure (CPP)” value (rat isolated heart; [5]) was “decrease” and the “diastolic pressure (EDP)” value (rat isolated heart; [5]) was “decrease”. For the same compound, the “diastolic pressure of the left ventricle (LVEDP)” value (rat isolated heart; [5]) was “increased”, the “percentage of cardiomyocytes positive for TUNEL (apoptotic)” value (rat isolated heart; 10µM, hearts at the end of the procedure, 64% positive without compound) was “significantly reduced” and the “proton flow and ATP synthesis / ATP levels” value (ATP synthesis) was “did not reduce ATP levels”.

With `O=C1N=CN(c2ccc(Cl)cc2)C12CCN(Cc1ccccc1)CC2` [compound 5c, 8-benzyl-1-(4-chlorophenyl)-1,3,8-triazaspiro[4.5]dec-2-en-4-one] the “release of Cyt.C from the mitochondria” value [1] was “prevent the release of Cyt.C”, the “reduction of MTT compared to the control” value (live cells) was “did not induce a significant reduction” and the “effect on cell viability (MTT)” value (live cells) was “some negative effect”. For the same compound, the “inhibition of Ca2+-induced mPTP opening (mitochondrial swelling, decrease in absorbance at 540 nm)” value (mPTP [2]) was “significantly more performing than compound 1” and the “proton flow and ATP synthesis / ATP levels” value (ATP synthesis) was “did not reduce ATP levels”.

In the case of `N.N.N.N.N.N.N.N.N.N.N.N.N.N.[Cl-].[Cl-].[Cl-].[Cl-].[Cl-].[Cl-].[O-2].[O-2].[Ru+3].[Ru+3].[Ru+4]` [RR, Red Ruthenium, reference compound], the “inhibition of Ca2+-induced mPTP opening (mitochondrial swelling, decrease in absorbance at 540 nm)” value (mPTP [2]) is reported as “prevented”.

In the case of `CC[C@H]1/C=C/C=C/C[C@@H](C)[C@H](O)[C@@](C)(O)C(=O)[C@@H](C)[C@H](O)[C@@H](C)C(=O)[C@@H](C)[C@H](O)[C@@H](C)/C=C/C(=O)O[C@@H]2[C@H](C)[C@H](CC1)O[C@]1(CC[C@H](C)[C@H](C[C@@H](C)O)O1)[C@H]2C` [Oligomycin, reference compound], the “proton flow and ATP synthesis / ATP levels” value (ATP synthesis) is reported as “significantly inhibited”.

For `O=C1NCN(c2cccc(C(F)(F)F)c2)C12CCN(Cc1ccccc1)CC2` [compound 6g, 8-benzyl-1-(3-(trifluoromethyl)phenyl)-1,3,8-triazaspiro[4.5]decan-4-one], the “release of Cyt.C from the mitochondria” value [1] was “prevent the release of Cyt.C”, the “inhibition of Ca2+-induced mPTP opening (mitochondrial swelling, decrease in absorbance at 540 nm)” value (mPTP [2]) was “significantly more performing than compound 1” and the “proton flow and ATP synthesis / ATP levels” value (ATP synthesis) was “did not reduce ATP levels”.

With `Cc1ccc(S(=O)(=O)N2CCC3(CC2)C(=O)NCN3c2ccccc2)cc1` [compound 1, 1-phenyl-8-tosyl-1,3,8-triazaspiro[4.5]decan-4-one] the “desensitization of the mPTP opening” value (mPTP [3]) was “about 50%”, the “proton flow and ATP synthesis / ATP levels” value (ATP synthesis) was “significantly inhibited” and the subcellular localization [4] was “selective accumulation of the compound in the mitochondria”.
